Read-outs that look alike come from different tables or passages of the source.
How the values were obtained:
ATR kinase = ATR kinase (Homo sapiens, UniProt Q13535); assay: Assay of ATR kinase activity (time-resolved fluorescence, phosphorylation of p53-derived protein); type: biochemical
Experimental: Biotinylated protein derived from p53 (Eurofins, art. No.: 14-952) was phosphorylated with ATR kinase. The amount of phosphorylated protein was determined by time-resolved fluorescence in this assay. The amount of phosphorylated protein was detected by anti-p53-phospho-(serine 15)-K-specific antibody (Cisbio, art. No.: 61GSTDLA) and d2 labeled anti-GST antibody (Cisbio, art. No. 61P08KAE). Before the assay, the following working solutions were formulated as required: 1×reaction buffer (20 mM HEPES PH8.0, 1% glycerol, 0.01% Brij-35), dilution buffer (20 mM HEPES PH8.0, 1% glycerol, 0.01% Brij-35, 5 mM DTT and 1% BSA), stop solution (20 mM HEPES PH8.0, 1% glycerol, 0.01% Brij-35, 250 mM EDTA), detection buffer (50 mM HEPES pH7.0, 150 mM NaCl, 267 mM KF, 0.1% sodium cholate, 0.01% Tween-20, 0.0125% sodium azide). The reagents used above were purchased from Sigma or Invitrogen, except for those whose manufacturers were mentioned.
Operations were as follows:
4× serially diluted compound solutions were prepared with 1× reaction buffer to give 9 compound solutions with different concentrations, and 2.5 μL of the 4× serially diluted compound solutions were added to a 384-well analysis plate (784075, Greiner). 4×p53 substrate working solution (40 nM) was prepared with 1× reaction buffer, and 2.5 μL of the 4×p53 substrate working solution was added to a 384-well analysis plate. 4×ATR/ATRIP working solution (12.8 ng/μL) was prepared with dilution buffer, and 2.5 μL of the 4×pATR/ATRIP working solution was added to a 384-well analysis plate. 4×ATP working solution (2 mM) was prepared with deionized water, and 2.5 μL of the 4×ATP working solution was added to a 384-well analysis plate. The plates were incubated at room temperature in dark for 30 minutes. 5 μL of stop solution was added to the 384 analysis plates. Finally, 5 μL of assay mixture (0.084 ng/μL Anti-phospho-p53(ser15)-K and 5 ng/μL Anti-GST-d2) was added to the 384 well analysis plates, and incubated at room temperature overnight. The fluorescence signal was detected with ENVISION (Perkinelmer) instrument (excitation wavelength: 320 nm, emission wavelength: 665 nm and 615 nm). The inhibition rate in each well was calculated by the fluorescence intensity value in each well:ER (Emission Ratio)=(Fluorescence intensity at 665 nm/Fluorescence intensity at 615 nm); inhibition rate=(ER of positive−ER of assay compound)/(ER of positive−ER of negative)×100%. IC50 values of compounds were calculated by standard software for parameter fitting (GraphPad Prism 6.0).

MV4-11 (leukemia) = assay: Cell proliferation inhibition in vitro, CellTiter-Glo, MV4-11; type: cell-based; conditions: Homo sapiens, read-out: MV4-11/IC50/μM
Experimental: (§1) By detecting the effect of compounds on cell activity in vitro in tumor cell lines TOV21G (ovarian cancer) and MV4-11 (leukemia), the inhibitory effect of compounds on cell proliferation was studied in this assay.
(§2) TOV21G cells and MV4-11 cells were purchased from American Type Culture Collection (ATCC).
MV-4-11 cells were cultured in IMDM medium (containing 20% of FBS). About 10,000 cells were inoculated in each well of a 96-well culture plate, and treated by adding different concentrations (0-10 μM) of compounds to be assayed. Each group was assayed in triplicate. Blank wells (containing medium only) and control wells (inoculated cells without being treated with drug) were set. Cells were cultured for 120 hours. 40 μL of Cell Titer-Glo solutions were added to each well, and the cells were incubated with shaking for 20 min in the dark. 100 μL of solution was transferred from each well to a 96-well blank plate, and the luminescence value was read by Biotek Synergy HI multifunctional microplate reader. Inhibition rate (%)=100%×(control well−assay well)/(control well−blank well)

TOV21G (ovarian cancer) = assay: Cell proliferation inhibition in vitro, CellTiter-Glo, TOV21G; type: cell-based; conditions: Homo sapiens, read-out: TOV21G/IC50/μM
Experimental: as §1, §2
TOV21G cells were cultured in MCDB105/M199 medium (containing 15% of FBS), and used for assaying when the cell confluence reached 85% or more. About 1000 cells were inoculated in each well of a 96-well culture plate, and cultured for 24 hours. Different concentrations (0-10 μM) of compounds to be assayed were added to treat the cells. Each group was assayed in triplicate. Blank wells (containing medium only) and control wells (inoculated cells without being treated with drug) were set. Cells were cultured for 120 hours. 40 μL of Cell Titer-Glo solutions (Promega, #G7573) were added to each well, and the cells were incubated with shaking for 20 min in the dark. 100 μL of solution was transferred from each well to a 96-well blank plate (Corning, #3917), and the luminescence value was read by Biotek Synergy H1 multifunctional microplate reader.

[1] = MV4-11 cells, 120 hours, CellTiter-Glo
[2] = TOV21G cells, 120 hours, CellTiter-Glo

Chain of ATR kinase (Q13535 whole entry): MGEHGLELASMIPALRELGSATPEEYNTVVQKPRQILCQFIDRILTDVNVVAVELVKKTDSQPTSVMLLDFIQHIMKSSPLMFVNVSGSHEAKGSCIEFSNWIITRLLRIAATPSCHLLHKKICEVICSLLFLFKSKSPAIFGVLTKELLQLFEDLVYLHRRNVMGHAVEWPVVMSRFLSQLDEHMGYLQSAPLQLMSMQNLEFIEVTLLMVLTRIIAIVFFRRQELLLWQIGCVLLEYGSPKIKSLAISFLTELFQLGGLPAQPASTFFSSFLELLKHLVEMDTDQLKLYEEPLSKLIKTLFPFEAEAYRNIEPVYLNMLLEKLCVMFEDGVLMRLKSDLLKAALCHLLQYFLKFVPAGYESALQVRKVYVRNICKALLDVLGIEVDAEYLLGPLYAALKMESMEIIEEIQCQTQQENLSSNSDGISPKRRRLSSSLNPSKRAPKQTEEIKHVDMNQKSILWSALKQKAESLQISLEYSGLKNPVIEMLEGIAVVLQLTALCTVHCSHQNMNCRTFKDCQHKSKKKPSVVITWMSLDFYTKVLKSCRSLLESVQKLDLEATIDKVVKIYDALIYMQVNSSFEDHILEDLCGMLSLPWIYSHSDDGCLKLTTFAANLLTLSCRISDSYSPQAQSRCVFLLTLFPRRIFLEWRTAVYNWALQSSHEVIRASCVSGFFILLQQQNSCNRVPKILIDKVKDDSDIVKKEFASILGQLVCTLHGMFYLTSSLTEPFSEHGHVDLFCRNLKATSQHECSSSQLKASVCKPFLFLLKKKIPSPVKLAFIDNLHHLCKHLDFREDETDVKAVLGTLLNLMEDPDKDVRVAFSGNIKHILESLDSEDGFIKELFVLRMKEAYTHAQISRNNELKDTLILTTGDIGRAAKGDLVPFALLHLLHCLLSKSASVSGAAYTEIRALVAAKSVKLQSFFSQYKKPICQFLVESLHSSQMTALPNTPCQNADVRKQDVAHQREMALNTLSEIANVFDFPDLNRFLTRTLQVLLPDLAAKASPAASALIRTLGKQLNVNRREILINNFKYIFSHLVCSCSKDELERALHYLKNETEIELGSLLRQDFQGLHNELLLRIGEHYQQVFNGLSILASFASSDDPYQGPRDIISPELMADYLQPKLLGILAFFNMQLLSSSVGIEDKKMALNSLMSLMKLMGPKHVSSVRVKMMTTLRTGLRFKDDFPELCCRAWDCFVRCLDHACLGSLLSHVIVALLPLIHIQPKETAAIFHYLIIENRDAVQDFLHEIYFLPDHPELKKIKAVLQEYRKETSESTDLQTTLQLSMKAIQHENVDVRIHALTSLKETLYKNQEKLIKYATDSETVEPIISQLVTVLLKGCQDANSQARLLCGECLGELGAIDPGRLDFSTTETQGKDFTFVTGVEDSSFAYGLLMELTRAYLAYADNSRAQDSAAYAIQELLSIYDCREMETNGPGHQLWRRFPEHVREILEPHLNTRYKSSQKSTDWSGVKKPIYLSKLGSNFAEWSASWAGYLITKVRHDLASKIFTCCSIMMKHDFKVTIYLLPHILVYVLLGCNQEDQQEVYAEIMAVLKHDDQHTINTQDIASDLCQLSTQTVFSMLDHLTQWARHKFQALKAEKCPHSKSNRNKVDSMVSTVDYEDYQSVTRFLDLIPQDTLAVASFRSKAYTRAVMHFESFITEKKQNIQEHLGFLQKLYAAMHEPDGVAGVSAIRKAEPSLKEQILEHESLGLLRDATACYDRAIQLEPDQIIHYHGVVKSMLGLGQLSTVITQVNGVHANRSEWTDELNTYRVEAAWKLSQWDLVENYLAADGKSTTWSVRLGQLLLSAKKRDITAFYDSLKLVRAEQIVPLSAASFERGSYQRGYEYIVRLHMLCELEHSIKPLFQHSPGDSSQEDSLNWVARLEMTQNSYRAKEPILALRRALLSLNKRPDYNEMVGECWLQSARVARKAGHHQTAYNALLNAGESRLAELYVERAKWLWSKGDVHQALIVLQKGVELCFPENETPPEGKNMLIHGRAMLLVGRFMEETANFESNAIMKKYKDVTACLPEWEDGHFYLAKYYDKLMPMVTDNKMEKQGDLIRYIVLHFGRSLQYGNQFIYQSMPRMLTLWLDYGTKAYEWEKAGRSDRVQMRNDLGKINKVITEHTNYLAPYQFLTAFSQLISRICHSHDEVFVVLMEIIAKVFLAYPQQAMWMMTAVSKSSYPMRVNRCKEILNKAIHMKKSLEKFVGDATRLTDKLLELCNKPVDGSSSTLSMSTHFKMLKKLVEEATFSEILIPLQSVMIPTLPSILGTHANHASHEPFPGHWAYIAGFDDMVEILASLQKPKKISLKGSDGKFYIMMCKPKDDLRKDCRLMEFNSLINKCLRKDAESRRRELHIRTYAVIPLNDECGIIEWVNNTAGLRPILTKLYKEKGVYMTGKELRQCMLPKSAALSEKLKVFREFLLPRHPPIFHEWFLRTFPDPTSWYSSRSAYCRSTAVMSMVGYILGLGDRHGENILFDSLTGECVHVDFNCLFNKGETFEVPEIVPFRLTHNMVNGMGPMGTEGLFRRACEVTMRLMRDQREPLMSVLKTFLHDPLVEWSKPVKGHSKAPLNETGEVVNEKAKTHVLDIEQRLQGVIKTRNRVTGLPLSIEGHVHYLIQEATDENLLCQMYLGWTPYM
Chain of ATR kinase (Q8WXE1 whole entry partner): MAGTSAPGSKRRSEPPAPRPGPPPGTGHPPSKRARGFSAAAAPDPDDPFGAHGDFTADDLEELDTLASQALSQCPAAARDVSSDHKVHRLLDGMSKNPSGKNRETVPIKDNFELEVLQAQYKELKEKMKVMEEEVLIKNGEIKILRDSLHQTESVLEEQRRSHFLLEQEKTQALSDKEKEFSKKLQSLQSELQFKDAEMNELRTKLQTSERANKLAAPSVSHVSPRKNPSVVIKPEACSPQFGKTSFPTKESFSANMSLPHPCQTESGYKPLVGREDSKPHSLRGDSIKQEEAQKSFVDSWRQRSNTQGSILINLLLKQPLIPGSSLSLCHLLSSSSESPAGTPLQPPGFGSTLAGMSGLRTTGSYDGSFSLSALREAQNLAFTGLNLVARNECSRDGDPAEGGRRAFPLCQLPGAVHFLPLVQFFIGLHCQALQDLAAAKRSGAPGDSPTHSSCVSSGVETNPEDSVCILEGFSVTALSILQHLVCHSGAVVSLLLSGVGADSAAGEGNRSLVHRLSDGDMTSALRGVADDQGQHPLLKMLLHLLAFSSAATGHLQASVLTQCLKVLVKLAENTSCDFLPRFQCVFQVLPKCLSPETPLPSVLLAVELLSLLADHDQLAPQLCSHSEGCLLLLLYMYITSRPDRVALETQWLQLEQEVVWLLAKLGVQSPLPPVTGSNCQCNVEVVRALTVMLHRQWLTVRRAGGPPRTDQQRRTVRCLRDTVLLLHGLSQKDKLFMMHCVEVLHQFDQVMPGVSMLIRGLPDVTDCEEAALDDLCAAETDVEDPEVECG

Cc1nn(-c2cncc(C(F)(F)F)c2)c(C)c1-c1cc(N2CCOC[C@H]2C)nc(-c2cc(F)cc3[nH]ccc23)n1 [Compound A13]
IC50 (ATR kinase): 88 nM | IC50 (MV4-11 (leukemia); [1]): 2.2 µM

CNc1nc2ccccc2n1-c1nc(-c2c(C)nn(-c3ccc(OC)nc3)c2C)cc(N2CCOC[C@H]2C)n1 [Compound B7]
IC50 (TOV21G (ovarian cancer); [2]): 0.544 µM | IC50 (ATR kinase): 62 nM | IC50 (MV4-11 (leukemia); [1]): 0.549 µM

Cc1nn(-c2cncc(F)c2)c(C)c1-c1cc(N2CCOC[C@H]2C)nc(-n2c(N)nc3ccccc32)n1 [Compound B12]
IC50 (TOV21G (ovarian cancer); [2]): 0.257 µM | IC50 (ATR kinase): 3 nM | IC50 (MV4-11 (leukemia); [1]): 0.253 µM

Cc1nn(-c2cncc(O)c2)c(C)c1-c1cc(N2CCOC[C@H]2C)nc(-c2cccc3[nH]ccc23)n1 [Compound A23]
IC50 (TOV21G (ovarian cancer); [2]): 0.24 µM | IC50 (ATR kinase): 3 nM | IC50 (MV4-11 (leukemia); [1]): 0.175 µM

Cc1nn(-c2cncc(F)c2)c(C)c1-c1cc(C23CCOCC2C3)nc(-c2cc(F)cc3[nH]ccc23)n1 (stereo not shown) [Compound C2]
IC50 (TOV21G (ovarian cancer); [2]): 1.07 µM | IC50 (ATR kinase): 13 nM | IC50 (MV4-11 (leukemia); [1]): 0.896 µM

Cc1nn(-c2cncc(C#N)c2)c(C)c1-c1cc(N2CCOC[C@H]2C)nc(-c2cc(F)cc3[nH]ccc23)n1 [Compound A9]
IC50 (TOV21G (ovarian cancer); [2]): 0.28 µM | IC50 (ATR kinase): 16 nM | IC50 (MV4-11 (leukemia); [1]): 0.198 µM

Cc1nn(-c2cnccn2)c(C)c1-c1cc(N2CCOC[C@H]2C)nc(-c2cc(F)cc3[nH]ccc23)n1 [Compound A25]
IC50 (TOV21G (ovarian cancer); [2]): 0.53 µM | IC50 (ATR kinase): 7 nM | IC50 (MV4-11 (leukemia); [1]): 0.46 µM

Cc1nn(-c2ccc(=O)[nH]c2)c(C)c1-c1cc(N2CCOC[C@H]2C)nc(-c2cc(F)cc3[nH]ccc23)n1 [Compound A7]
IC50 (TOV21G (ovarian cancer); [2]): 0.33 µM | IC50 (ATR kinase): 6 nM | IC50 (MV4-11 (leukemia); [1]): 0.1 µM

Cc1nn(-c2ccc(=O)[nH]c2)c(C)c1-c1cc(N2CCOC[C@H]2C)nc(-n2c(NCCO)nc3ccccc32)n1 [Compound B13]
IC50 (ATR kinase): 5 nM

Cc1nn(-c2cncc(C(N)=O)c2)c(C)c1-c1cc(N2CCOC[C@H]2C)nc(-c2cccc3[nH]ccc23)n1 [Compound A24]
IC50 (TOV21G (ovarian cancer); [2]): 0.22 µM | IC50 (ATR kinase): 1 nM | IC50 (MV4-11 (leukemia); [1]): 0.18 µM

Cc1nn(-c2cncc(C(F)F)c2)c(C)c1-c1cc(N2CCOC[C@H]2C)nc(-c2ccnc3[nH]ccc23)n1 [Compound A21]
IC50 (TOV21G (ovarian cancer); [2]): 0.537 µM | IC50 (ATR kinase): 6 nM | IC50 (MV4-11 (leukemia); [1]): 0.332 µM

CNc1nc2ccccc2n1-c1nc(-c2c(C)nn(-c3ccc(C#N)nc3)c2C)cc(N2CCOC[C@H]2C)n1 [Compound B2]
IC50 (TOV21G (ovarian cancer); [2]): 0.278 µM | IC50 (ATR kinase): 22 nM | IC50 (MV4-11 (leukemia); [1]): 0.133 µM

Cc1nn(-c2cncc(F)c2)c(C)c1-c1nc(-c2cccc3[nH]ccc23)nc(N2CCOC[C@H]2C)n1 [Compound C1]
IC50 (TOV21G (ovarian cancer); TOV21G, 120 h): 0.349 µM | IC50 (ATR kinase): 18 nM | IC50 (MV4-11 (leukemia); MV4-11, 120 h): 0.903 µM

CNc1nc2ccccc2n1-c1nc(-c2c(C)nn(-c3cncc(C#N)c3)c2C)cc(N2CCOC[C@H]2C)n1 [Compound B4]
IC50 (TOV21G (ovarian cancer); [2]): 0.306 µM | IC50 (ATR kinase): 17 nM | IC50 (MV4-11 (leukemia); [1]): 0.25 µM

Cc1nn(-c2cncc(F)c2)c(C)c1-c1cc(N2CCOC[C@H]2C)nc(-n2c(NCCO)nc3ccccc32)n1 [Compound B11]
IC50 (TOV21G (ovarian cancer); [2]): 0.276 µM | IC50 (ATR kinase): 15 nM | IC50 (MV4-11 (leukemia); [1]): 0.24 µM

Cc1nn(-c2cnccc2Cl)c(C)c1-c1cc(N2CCOC[C@H]2C)nc(-c2cc(F)cc3[nH]ccc23)n1 [Compound A10]
IC50 (TOV21G (ovarian cancer); [2]): 0.556 µM | IC50 (ATR kinase): 20 nM | IC50 (MV4-11 (leukemia); [1]): 0.206 µM

Cc1ncccc1-n1nc(C)c(-c2cc(N3CCOC[C@H]3C)nc(-c3cc(F)cc4[nH]ccc34)n2)c1C [Compound A8]
IC50 (TOV21G (ovarian cancer); [2]): 0.274 µM | IC50 (ATR kinase): 9 nM | IC50 (MV4-11 (leukemia); [1]): 0.382 µM

CC#Cc1cncc(-n2nc(C)c(-c3cc(N4CCOC[C@H]4C)nc(-n4c(NC)nc5ccccc54)n3)c2C)c1 [Compound B8]
IC50 (TOV21G (ovarian cancer); [2]): 0.212 µM | IC50 (ATR kinase): 69 nM | IC50 (MV4-11 (leukemia); [1]): 0.519 µM

CNc1nc2ccccc2n1-c1nc(-c2c(C)nn(-c3cncc(Cl)c3)c2C)cc(N2CCOC[C@H]2C)n1 [Compound B3]
IC50 (TOV21G (ovarian cancer); [2]): 0.411 µM | IC50 (ATR kinase): 49 nM | IC50 (MV4-11 (leukemia); [1]): 0.303 µM

Cc1nn(-c2cccnc2)c(C)c1-c1cc(N2CCOC[C@H]2C)nc(-c2cc(F)cc3[nH]ccc23)n1 [Compound A4]
IC50 (TOV21G (ovarian cancer); [2]): 0.313 µM | IC50 (ATR kinase): 10 nM | IC50 (MV4-11 (leukemia); [1]): 0.193 µM

COc1ccc(-n2nc(C)c(-c3cc(N4CCOC[C@H]4C)nc(-c4cc(F)cc5[nH]ccc45)n3)c2C)cn1 [Compound A5]
IC50 (TOV21G (ovarian cancer); [2]): 0.647 µM | IC50 (ATR kinase): 30 nM | IC50 (MV4-11 (leukemia); [1]): 0.778 µM

Cc1nn(-c2cncc(Cl)c2)c(C)c1-c1cc(N2CCOC[C@H]2C)nc(-c2ccnc3[nH]ccc23)n1 [Compound A18]
IC50 (TOV21G (ovarian cancer); [2]): 0.208 µM | IC50 (ATR kinase): 1 nM | IC50 (MV4-11 (leukemia); [1]): 0.451 µM

Cc1nn(-c2cncc(F)c2)c(C)c1-c1cc(C23CCOCC2C3)nc(-c2cccc3[nH]ccc23)n1 (stereo not shown) [Compound C3]
IC50 (TOV21G (ovarian cancer); [2]): 0.667 µM | IC50 (ATR kinase): 16 nM | IC50 (MV4-11 (leukemia); [1]): 0.632 µM

CNc1nc2ccccc2n1-c1nc(-c2c(C)nn(-c3cnc(N)c(F)c3)c2C)cc(N2CCOC[C@H]2C)n1 [Compound B5]
IC50 (TOV21G (ovarian cancer); [2]): 0.383 µM | IC50 (ATR kinase): 16 nM | IC50 (MV4-11 (leukemia); [1]): 0.208 µM

Cc1nn(-c2ccncc2)c(C)c1-c1cc(N2CCOC[C@H]2C)nc(-c2cc(F)cc3[nH]ccc23)n1 [Compound A2]
IC50 (TOV21G (ovarian cancer); [2]): 0.397 µM | IC50 (ATR kinase): 8 nM | IC50 (MV4-11 (leukemia); [1]): 0.635 µM

Cc1nn(-c2cccnn2)c(C)c1-c1cc(N2CCOC[C@H]2C)nc(-c2cc(F)cc3[nH]ccc23)n1 [Compound A16]
IC50 (TOV21G (ovarian cancer); [2]): 0.166 µM | IC50 (ATR kinase): 1 nM | IC50 (MV4-11 (leukemia); [1]): 0.082 µM

Cc1nn(-c2ccc(F)nc2)c(C)c1-c1cc(N2CCOC[C@H]2C)nc(-c2cc(F)cc3[nH]ccc23)n1 [Compound A6]
IC50 (TOV21G (ovarian cancer); [2]): 0.423 µM | IC50 (ATR kinase): 14 nM | IC50 (MV4-11 (leukemia); [1]): 0.656 µM

CCc1cncc(-n2nc(C)c(-c3cc(N4CCOC[C@H]4C)nc(-c4cc(F)cc5[nH]ccc45)n3)c2C)c1 [Compound A12]
IC50 (ATR kinase): 36 nM | IC50 (MV4-11 (leukemia); [1]): 0.801 µM

COc1cncc(-n2nc(C)c(-c3cc(N4CCOC[C@H]4C)nc(-c4cc(F)cc5[nH]ccc45)n3)c2C)c1 [Compound A1]
IC50 (ATR kinase): 11 nM | IC50 (MV4-11 (leukemia); [1]): 0.658 µM
